Test results: EP0515684A1, “INHIBITOR OF DENATURED LDL FORMATION” (Chugai Seiyaku Kabushiki Kaisha, priority 1990, dated 1991)

Tested on: rabbit LDL
Assay: Amount of thiobarbituric acid reactive substances (TBARS) formed on Cu2+ oxidation of LDL
Format: biochemical
Settings: 5 µM of Cu²⁺ added to rabbit LDL, followed by heating
Experimental: The biological properties of the compounds as shown hereinafter were examined by the following methods. • (1) The amount of thiobarbituric acid reactive substances: 5 µM of Cu²⁺ was added to rabbit LDL, prepared by the method reported by Havel et al., followed by heating. Then the antioxidative effect of each compound was examined by using the thiobarbituric acid reactive substances (TBARS) thus formed as the guidance. […] 0.5 ml of an n-butanol solution containing 0.2 µM of MCLA and 10 mM of linoleic acid was introduced into a vial for luminescence analysis and the luminescence due to autoxidation was measured in a thermostat at 37°C. […] To the obtained plasma, were added EDTA-NaN₃ (a 5% solution of pH 7.4) and a benzamidine solution (60 mg/ml) respectively in amounts of 0.8 ml and 0.5 ml per 100 ml of the plasma. Then rabbit or human LDL (1.019 < d < 1.063) was prepared by ultracentrifugation in accordance with the method of Havel et al.*. After performing the ultracentifugation again, the LDL was washed and concentrated. Then it was dialyzed against a 150 mM NaCl - 2 mM Na₂HPO₄ solution at 4°C and KBr was removed. The protein content was determined by Lowry method** and then the LDL was subjected to the subsequent procedure. (Measurement of electrophoretic mobility in agarose gel) 10 µM of Cu²⁺ and a specimen were added to an LDL-containing solution (3.00 µg protein/ml). After incubating at 37°C for approximately 24 hours, a portion (1 µl) thereof was applied onto an agarose gel film (Universal Film, manufactured by Corning Co.) and then subjected to electrophoresis (Agarose Gel Electrophoresis System for Lipoprotein, manufactured by Corning Co.). Thus the mobility was measured by staining lipids with Fat Red 7B. […] After 3 days, peritoneal macrophages were collected from the mouse and incubated in an RPMI 1640 medium containing 10% of FBS. The macrophages were used in the • examination on the next day.

| Structure (SMILES) | Formed TBARS (%) (Compound conc. 10^-5 M, 10 µM) | Formed TBARS (%) (Compound conc. 10^-6 M, 1 µM) |
| --- | --- | --- |
| COc1cc(N(C)Cc2ccccc2)cc(OC)c1OC [Compound 2, N-benzyl-N-methyl-3,4,5-trimethoxyaniline] | 31 | 56 |
| CCN(Cc1ccccc1)c1cc(OC)c(OC)c(OC)c1 [Compound 3, N-benzyl-N-ethyl-3,4,5-trimethoxyaniline] | 35 | 51 |
| COc1cc(N(CC=C(C)CCC=C(C)C)Cc2ccccc2)cc(OC)c1OC [Compound 8] | 31 | 55 |
| COc1cc(N(CC=C(C)CCCC(C)CCCC(C)CCCC(C)C)Cc2ccccc2)cc(OC)c1OC (stereo not drawn) [Compound 9] | 57 | 78 |
| COc1cc(NCc2ccc(C)c(C)c2)cc(OC)c1OC [Compound 10] | 9 | 25 |
| COc1cc(NCc2ccc(Br)cc2)cc(OC)c1OC [Compound 26] | 12 | 27 |
| COc1cc(NCc2cccc(Br)c2)cc(OC)c1OC [Compound 27] | 12 | 29 |
| COc1cc(NCc2ccccc2Br)cc(OC)c1OC [Compound 28] | 13 | 30 |
| COc1cc(NCc2c(F)c(F)c(F)c(F)c2F)cc(OC)c1OC [Compound 29] | 20 | 39 |
| COc1cc(N(CCCc2ccccc2)Cc2c(F)c(F)c(F)c(F)c2F)cc(OC)c1OC [Compound 30] | 26 | 57 |
| COc1cc(CNc2cc(OC)c(OC)c(OC)c2)cc(OC)c1OC [Compound 35] | 28 | 52 |
| CCCCCCOc1ccc(CNc2cc(OC)c(OC)c(OC)c2)cc1 [Compound 41] | 16 | 63 |
| CCCCCCCCOc1ccc(CNc2cc(OC)c(OC)c(OC)c2)cc1 [Compound 42] | 19 | 72 |
| CCCCCCCCCCCCOc1ccc(CNc2cc(OC)c(OC)c(OC)c2)cc1OCCCCCCCCCCCC [Compound 43] | 62 | 94 |
| COc1cc(NCc2ccccc2OCCC(C)CCCC(C)C)cc(OC)c1OC (stereo not drawn) [Compound 45] | 15 | 80 |
| COc1cc(NCc2ccccc2OC/C=C(\C)CCC=C(C)C)cc(OC)c1OC [Compound 46] | 13 | 69 |
| COc1cc(NCc2ccc(OC/C=C(\C)CCC=C(C)C)cc2)cc(OC)c1OC [Compound 47] | 17 | 76 |
| COc1cc(NCc2ccc(OC/C=C(\C)CCCC(C)CCCC(C)CCCC(C)C)cc2)cc(OC)c1OC (stereo not drawn) [Compound 48] | 40 | 90 |
| COc1cc(NCc2ccc(OC/C=C(\C)CC/C=C(\C)CCC=C(C)C)cc2)cc(OC)c1OC [Compound 49] | 39 | 78 |
| COc1cc(NCc2ccccc2SCCC(C)CCCC(C)C)cc(OC)c1OC (stereo not drawn) [Compound 50] | 17 | 70 |

| Structure (SMILES) | Formed TBARS (%) (Compound conc. 10^-5 M, 10 µM) | Formed TBARS (%) (Compound conc. 10^-6 M, 1 µM) |
| --- | --- | --- |
| COc1cc(NCc2cccc(Oc3ccccc3)c2)cc(OC)c1OC [Compound 51] | 16 | 32 |
| COc1cc(NCc2ccc(Oc3ccccc3)cc2)cc(OC)c1OC [Compound 52] | 13 | 43 |
| CCOC(=O)CCCCCCOc1ccc(CNc2cc(OC)c(OC)c(OC)c2)cc1 [Compound 53] | 13 | 38 |
| COc1cc(NCc2ccc(OCCCCCCC(=O)O)cc2)cc(OC)c1OC [Compound 54] | 16 | 46 |
| CCOC(=O)C(C)(C)Oc1ccc(CNc2cc(OC)c(OC)c(OC)c2)cc1 [Compound 55] | 20 | 46 |
| COc1cc(NCc2ccc(OC(C)(C)C(=O)O)cc2)cc(OC)c1OC [Compound 56] | 59 | 77 |
| COc1cc(NCc2ccc(CNc3cc(OC)c(OC)c(OC)c3)cc2)cc(OC)c1OC [Compound 57] | 12 | 34 |
| COC(=O)c1ccc(CNc2cc(OC)c(OC)c(OC)c2)cc1 [Compound 60] | 17 | 46 |
| COc1cc(NCc2ccc([N+](=O)[O-])cc2)cc(OC)c1OC [Compound 64] | 17 | 38 |
| COc1cc(NCc2ccc(CO)cc2)cc(OC)c1OC [Compound 67] | 35 | 55 |
| COc1cc(NCCc2ccccc2)cc(OC)c1OC [Compound 69] | 18 | 36 |
| COc1cc(NCCCc2ccccc2)cc(OC)c1OC [Compound 70] | 18 | 25 |
| COc1cc(NCCCCc2ccccc2)cc(OC)c1OC [Compound 71] | 7 | 20 |
| COc1cc(NCCCc2ccc(CO)cc2)cc(OC)c1OC [Compound 75] | 16 | 38 |
| CCCCC(Nc1cc(OC)c(OC)c(OC)c1)c1ccccc1 (stereo not drawn) [Compound 77, N-(1-phenylpentyl)-3,4,5-trimethoxyaniline] | 17 | 31 |
| CCCCCCC(Nc1cc(OC)c(OC)c(OC)c1)c1ccccc1 (stereo not drawn) [Compound 78] | 14 | 29 |
| CCCCCCCCC(Nc1cc(OC)c(OC)c(OC)c1)c1ccccc1 (stereo not drawn) [Compound 79] | 19 | 46 |
| C=CCC(Nc1cc(OC)c(OC)c(OC)c1)c1ccccc1 (stereo not drawn) [Compound 80] | 17 | 33 |
| COc1cc(NC(CC(C)C)c2ccccc2)cc(OC)c1OC (stereo not drawn) [Compound 81] | 15 | 25 |
| COc1cc(NC(c2ccccc2)c2ccccc2)cc(OC)c1OC [Compound 82] | 15 | 34 |

| Structure (SMILES) | Formed TBARS (%) (Compound conc. 10^-5 M, 10 µM) | Formed TBARS (%) (Compound conc. 10^-6 M, 1 µM) |
| --- | --- | --- |
| COc1cc(NC(CCc2ccccc2)C(C)C)cc(OC)c1OC (stereo not drawn) [Compound 83] | 15 | 28 |
| COc1cc(NCC=Cc2ccccc2)cc(OC)c1OC [Compound 85] | 20 | 64 |
| COc1cc(N(CC=Cc2ccccc2)CC=Cc2ccccc2)cc(OC)c1OC [Compound 86] | 27 | 52 |
| COc1cc(NC2CCCc3ccccc32)cc(OC)c1OC (stereo not drawn) [Compound 90] | 9 | 26 |
| COc1cc(NCc2ccc[nH]2)cc(OC)c1OC [Compound 94] | 63 | 87 |
| COc1cc(NCc2ccco2)cc(OC)c1OC [Compound 95] | 29 | 66 |
| C=CCN(Cc1ccco1)c1cc(OC)c(OC)c(OC)c1 [Compound 96] | 43 | 67 |
| COc1cc(NCc2cccs2)cc(OC)c1OC [Compound 97] | 24 | 44 |
| COc1cc(NCc2ccccn2)cc(OC)c1OC [Compound 98] | 43 | 79 |
| COc1cc(NCc2cccnc2)cc(OC)c1OC [Compound 99] | 47 | 79 |
| COc1cc(NCc2nccn2CC=C(C)CCC=C(C)CCC=C(C)C)cc(OC)c1OC [Compound 100] | 13 | 81 |
| COc1cc(NC2CCOc3ccccc32)cc(OC)c1OC (stereo not drawn) [Compound 101] | 18 | 41 |
| COc1cc(NCC2CCCC2)cc(OC)c1OC [Compound 102] | 15 | 27 |
| COc1cc(NCC2CCCCC2)cc(OC)c1OC [Compound 103] | 8 | 23 |
| COc1cc(N(CC2CCCCC2)CC2CCCCC2)cc(OC)c1OC [Compound 104] | 23 | 31 |
| COc1cc(NC(C)C2CCCCC2)cc(OC)c1OC (stereo not drawn) [Compound 105] | 8 | 22 |
| CCCC(Nc1cc(OC)c(OC)c(OC)c1)C1CCCCC1 (stereo not drawn) [Compound 106] | 8 | 16 |
| C=CCC(Nc1cc(OC)c(OC)c(OC)c1)C1CCCCC1 (stereo not drawn) [Compound 107] | 7 | 20 |
| CCCCC(Nc1cc(OC)c(OC)c(OC)c1)C1CCCCC1 (stereo not drawn) [Compound 108] | 8 | 21 |
| COc1cc(NC2CCCC3CCCCC32)cc(OC)c1OC (stereo not drawn) [Compound 109] | 10 | 20 |
